In patent US20240132531A1, “NOVEL GALACTOSIDE INHIBITOR OF GALECTINS” (GALECTO BIOTECH AB, priority 2020, published 2024):

Experiments:
[1] = target: galectin-1 (Homo sapiens, UniProt P09382); assay: Fluorescence anisotropy assay, affinity for galectin-1; type: binding; conditions: compound as inhibitor of the interaction between galectin and a fluorescein tagged saccharide probe; read-out: Gal-1 Kd
Procedure: (§1) The affinity of Example 1-39 for galectins were determined by a fluorescence anisotropy assay where the compound was used as an inhibitor of the interaction between galectin and a fluorescein tagged saccharide probe as described Sarme, P., Kahl-Knutsson, B., Huflejt, M., Nilsson, U. J., and Leffler H. (2004) Fluorescence polarization as an analytical tool to evaluate galectin-ligand interactions. Anal. Biochem. 334: 36-47, (Sarme et al., 2004) and Monovalent interactions of Galectin-1 By Salomonsson, Emma; Larumbe, Amaia; Tejler, Johan; Tullberg, Erik; Rydberg, Hanna; Sundin, Anders; Khabut, Areej; Frejd, Torbjorn; Lobsanov, Yuri D.; Rini, James M.; et al, From Biochemistry (2010), 49(44), 9518-9532, (Salomonsson et al., 2010).

[2] = target: galectin-3 (Homo sapiens, UniProt P17931); assay: Fluorescence anisotropy assay, affinity for galectin-3; type: binding; conditions: compound as inhibitor of the interaction between galectin and a fluorescein tagged saccharide probe; read-out: Gal-3 Kd
Procedure: as §1

galectin-1, sequence (P09382 whole entry): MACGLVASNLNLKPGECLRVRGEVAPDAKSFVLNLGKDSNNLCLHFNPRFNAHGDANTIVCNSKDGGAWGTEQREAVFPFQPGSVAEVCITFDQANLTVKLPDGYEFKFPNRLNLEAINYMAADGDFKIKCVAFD
galectin-3, sequence (P17931 whole entry): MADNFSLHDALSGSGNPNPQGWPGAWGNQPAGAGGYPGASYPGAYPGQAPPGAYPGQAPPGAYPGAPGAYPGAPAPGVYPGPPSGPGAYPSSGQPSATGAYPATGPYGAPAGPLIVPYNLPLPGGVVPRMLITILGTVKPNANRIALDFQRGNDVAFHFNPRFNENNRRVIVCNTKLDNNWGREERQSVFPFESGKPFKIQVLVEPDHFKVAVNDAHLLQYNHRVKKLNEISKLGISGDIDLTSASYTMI

| SMILES | Kd [1] [nM] | Kd [2] [nM] |
| --- | --- | --- |
| CCOC(=O)c1cc([C@@H]2OC(CO)[C@H](O)C(n3cc(-c4nc(Cl)cs4)nn3)C2OC)n(-c2cc(Cl)ccc2C(F)(F)F)n1 (stereo partly drawn) [Example 17, 1-{5-{3-[4-(4-Chlorothiazol-2-yl)-1H-1,2,3-triazol-1-yl]-3-deoxy-2-O-methyl-β-D-galactopyranosyl}-3-ethoxycarbonyl-1H-1,2-pyrazol-1-yl}-5-chloro-2-(trifluoromethyl)benzene] | 240 | 880 |
| COC1C(n2cc(-c3csc(O)n3)nn2)[C@@H](O)C(CO)O[C@H]1c1ccnn1-c1cc(Br)c(F)cc1C(F)(F)F (stereo partly drawn) [Example 37, 5-Bromo-1-{5-{3-deoxy-3-[4-(2-hydroxythiazol-4-yl)-1H-1,2,3-triazol-1-yl]-2-O-methyl-β-D-galactopyranosyl}-1H-1,2-pyrazol-1-yl}-4-fluoro-2-(trifluoromethyl)benzene] | 17 | 4700 |
| OCC1O[C@@H](c2ccnn2-c2cc(Cl)ccc2C(F)(F)F)C(O)C(n2cc(-c3nc(Cl)cs3)nn2)[C@H]1O (stereo partly drawn) [Example 11, 1-{5-{3-[4-(4-Chlorothiazol-2-yl)-1H-1,2,3-triazol-1-yl]-3-deoxy-β-D-galactopyranosyl}-1H-1,2-pyrazol-1-yl}-5-chloro-2-(trifluoromethyl)benzene] | 48 | 430 |
| COC1C(n2cc(-c3nccs3)nn2)[C@@H](O)C(CO)O[C@H]1c1cc(C)nn1-c1cc(Cl)ccc1C(F)(F)F (stereo partly drawn) [Example 14, 5-Chloro-1-{5-{3-deoxy-2-O-methyl-3-[4-(2-thiazolyl)-1H-1,2,3-triazol-1-yl]-β-D-galactopyranosyl}-3-methyl-1H-1,2-pyrazol-1-yl}-2-(trifluoromethyl)benzene] | 150 | 5200 |
| COC1C(n2cc(-c3cscn3)nn2)[C@@H](O)C(CO)O[C@H]1c1ccnn1-c1cc(Cl)ccc1C(F)(F)F (stereo partly drawn) [Example 38, 5-Chloro-1-{5-{3-deoxy-2-O-methyl-3-[4-(4-thiazolyl)-1H-1,2,3-triazol-1-yl]-β-D-galactopyranosyl}-1H-1,2-pyrazol-1-yl}-2-(trifluoromethyl)benzene] | 120 | 4900 |
| OCC1O[C@@H](c2ccnn2-c2cc(Cl)ccc2C(F)(F)F)C(O)C(n2cc(-c3nccs3)nn2)[C@H]1O (stereo partly drawn) [Example 5, 5-Chloro-1-{5-{3-deoxy-3-[4-(2-thiazolyl)-1H-1,2,3-triazol-1-yl]-β-D-galactopyranosyl}-1H-1,2-pyrazol-1-yl}-2-(trifluoromethyl)benzene] | 210 | 4830 |
| COC1C(n2cc(-c3nc(Cl)cs3)nn2)[C@@H](O)C(CO)O[C@H]1c1ccnn1-c1ccc2nc(C)sc2c1 (stereo partly drawn) [Example 16, 1-{5-{3-[4-(4-Chlorothiazol-2-yl)-1H-1,2,3-triazol-1-yl]-3-deoxy-2-O-methyl-β-D-galactopyranosyl}-1H-1,2-pyrazol-1-yl}-2-methylbenzothiazole] | 38 | 1500 |
| OCC1O[C@@H](c2ccnn2-c2cc(Cl)ccc2C(F)(F)F)C(O)C(n2cc(-c3ncc(Cl)s3)nn2)[C@H]1O (stereo partly drawn) [Example 10, 1-{5-{3-[4-(5-Chlorothiazol-2-yl)-1H-1,2,3-triazol-1-yl]-3-deoxy-β-D-galactopyranosyl}-1H-1,2-pyrazol-1-yl}-5-chloro-2-(trifluoromethyl)benzene] | 43 | 330 |
| COC1C(n2cc(-c3nc(Cl)cs3)nn2)[C@@H](O)C(CO)O[C@H]1c1cc(C)nn1-c1ccc2nc(C)sc2c1 (stereo partly drawn) [Example 15, 1-{5-{3-[4-(4-Chlorothiazol-2-yl)-1H-1,2,3-triazol-1-yl]-3-deoxy-2-O-methyl-β-D-galactopyranosyl}-3-methyl-1H-1,2-pyrazol-1-yl}-2-methylbenzothiazole] | 67 | 2000 |
| COC1C(n2cc(-c3nc(Cl)cs3)nn2)[C@@H](O)C(CO)O[C@H]1c1cc(C(N)=O)nn1-c1cc(Cl)ccc1C(F)(F)F (stereo partly drawn) [Example 39, 1-{3-Aminocarbonyl-5-{3-[4-(4-chlorothiazol-2-yl)-1H-1,2,3-triazol-1-yl]-3-deoxy-2-O-methyl-β-D-galactopyranosyl}-1H-1,2-pyrazol-1-yl}-5-chloro-2-(trifluoromethyl)benzene] | 200 | 320 |
| COC1C(n2cc(-c3nc(Cl)cs3)nn2)[C@@H](O)C(CO)O[C@H]1c1cc(C(C)C)nn1-c1cc(Cl)ccc1C(F)(F)F (stereo partly drawn) [Example 28, 1-{5-{3-[4-(4-Chlorothiazol-2-yl)-1H-1,2,3-triazol-1-yl]-3-deoxy-2-O-methyl-β-D-galactopyranosyl}-3-isopropyl-1H-1,2-pyrazol-1-yl}-5-chloro-2-(trifluoromethyl)benzene] | 180 | 320 |
| COC1C(n2cc(-c3ncc(Cl)s3)nn2)[C@@H](O)C(CO)O[C@H]1c1ccnn1-c1cc(Cl)ccc1C(F)(F)F (stereo partly drawn) [Example 12, 1-{5-{3-[4-(5-Chlorothiazol-2-yl)-1H-1,2,3-triazol-1-yl]-3-deoxy-2-O-methyl-β-D-galactopyranosyl}-1H-1,2-pyrazol-1-yl}-5-chloro-2-(trifluoromethyl)benzene] | 24 | 390 |
| Cc1cc([C@@H]2OC(CO)[C@H](O)C(n3cc(-c4nc(Cl)cs4)nn3)C2O)n(-c2cc(Cl)ccc2C(F)(F)F)n1 (stereo partly drawn) [Example 9, 1-{5-{3-[4-(4-Chlorothiazol-2-yl)-1H-1,2,3-triazol-1-yl]-3-deoxy-β-D-galactopyranosyl}-3-methyl-1H-1,2-pyrazol-1-yl}-5-chloro-2-(trifluoromethyl)benzene] | 37 | 370 |
| COC1C(n2cc(-c3nc(Cl)cs3)nn2)[C@@H](O)C(CO)O[C@H]1c1ccnn1-c1cc(Cl)cnc1C(F)(F)F (stereo partly drawn) [Example 32, 3-{5-{3-[4-(4-Chlorothiazol-2-yl)-1H-1,2,3-triazol-1-yl]-3-deoxy-2-O-methyl-β-D-galactopyranosyl}-1H-1,2-pyrazol-1-yl}-5-chloro-2-(trifluoromethyl)pyridine] | 50 | 650 |
| COC1C(n2cc(-c3nc(Cl)cs3)nn2)[C@@H](O)C(CO)O[C@H]1c1cc(C#N)nn1-c1cc(Cl)ccc1C(F)(F)F (stereo partly drawn) [Example 31, 1-{5-{3-[4-(4-Chlorothiazol-2-yl)-1H-1,2,3-triazol-1-yl]-3-deoxy-2-O-methyl-β-D-galactopyranosyl}-3-cyano-1H-1,2-pyrazol-1-yl}-5-chloro-2-(trifluoromethyl)benzene] | 71 | 400 |
| OCC1O[C@@H](c2ccnn2-c2cc(Cl)ccc2C(F)(F)F)C(O)C(n2cc(-n3ccc(Cl)n3)nn2)[C@H]1O (stereo partly drawn) [Example 8, 1-{5-{3-[4-(3-Chloro-1H-1,2-pyrazol-1-yl)-1H-1,2,3-triazol-1-yl]-3-deoxy-β-D-galactopyranosyl}-1H-1,2-pyrazol-1-yl}-5-chloro-2-(trifluoromethyl)benzene] | 270 | 880 |
| COC1C(n2cc(-c3nc(Cl)cs3)nn2)[C@@H](O)C(CO)O[C@H]1c1ccnn1-c1cc(Cl)c(Cl)cc1C(F)(F)F (stereo partly drawn) [Example 21, 1-{5-{3-[4-(4-Chlorothiazol-2-yl)-1H-1,2,3-triazol-1-yl]-3-deoxy-2-O-methyl-β-D-galactopyranosyl}-1H-1,2-pyrazol-1-yl}-4,5-dichloro-2-(trifluoromethyl)benzene] | 35 | 1100 |
| COC1C(n2cc(-c3nc(Cl)cs3)nn2)[C@@H](O)C(CO)O[C@H]1c1ccnn1-c1cc(Cl)ccc1C(F)(F)F (stereo partly drawn) [Example 1, 1-{5-{3-[4-(4-Chlorothiazol-2-yl)-1H-1,2,3-triazol-1-yl]-3-deoxy-2-O-methyl-β-D-galactopyranosyl}-1H-1,2-pyrazol-1-yl}-5-chloro-2-(trifluoromethyl)benzene] | 36 | 450 |
| OCC1O[C@@H](c2ccnn2-c2cc(Cl)ccc2C(F)(F)F)C(O)C(n2cc(-c3csc(O)n3)nn2)[C@H]1O (stereo partly drawn) [Example 7, 5-Chloro-1-{5-{3-deoxy-3-[4-(2-hydroxythiazol-4-yl)-1H-1,2,3-triazol-1-yl]-β-D-galactopyranosyl}-1H-1,2-pyrazol-1-yl}-2-(trifluoromethyl)benzene] | 29 | 5830 |
| OCC1O[C@@H](c2ccnn2-c2cc(Br)ccc2C(F)(F)F)C(O)C(n2cc(-c3nc(Cl)cs3)nn2)[C@H]1O (stereo partly drawn) [Example 19, 5-Bromo-1-{5-{3-[4-(4-chlorothiazol-2-yl)-1H-1,2,3-triazol-1-yl]-3-deoxy-β-D-galactopyranosyl}-1H-1,2-pyrazol-1-yl}-2-(trifluoromethyl)benzene] | 43 | 280 |
| Nc1nc(-c2cn(C3C(O)[C@H](c4ccnn4-c4cc(Cl)ccc4C(F)(F)F)OC(CO)[C@@H]3O)nn2)cs1 (stereo partly drawn) [Example 6, 1-{5-{3-[4-(2-Aminothiazol-4-yl)-1H-1,2,3-triazol-1-yl]-3-deoxy-β-D-galactopyranosyl}-1H-1,2-pyrazol-1-yl}-5-chloro-2-(trifluoromethyl)benzene] | 120 | 10800 |
| COC1C(n2cc(-c3nc(Cl)cs3)nn2)[C@@H](O)C(CO)O[C@H]1c1cc(C(=O)O)nn1-c1cc(Cl)ccc1C(F)(F)F (stereo partly drawn) [Example 18, 1-{3-Carboxy-5-{3-[4-(4-chlorothiazol-2-yl)-1H-1,2,3-triazol-1-yl]-3-deoxy-2-O-methyl-β-D-galactopyranosyl}-1H-1,2-pyrazol-1-yl}-5-chloro-2-(trifluoromethyl)benzene] | 420 | 320 |
